Results taken from ChEMBL document CHEMBL5518209, “Caltrop-like Small-Molecule Antidotes That Neutralize Unfractionated Heparin and Low-Molecular-Weight Heparin In Vivo” (J Med Chem, 2024).
One block for each molecule: values may come before it. Active and inactive are the calls of the source. The calls are words filed in the database; no cut-off is given here.

Tests used:
Bos taurus [1] = species on record: Bos taurus; experiment: Neutralization of dalteparin sodium in bovine plasma at 10 to 60 ug/ml by aPTT assay; type: cell-free; conditions: dose 10-60 µg/ml
Bos taurus [2] = species on record: Bos taurus; experiment: Neutralization of nadroparin calcium in bovine plasma at 10 to 60 ug/ml by aPTT assay; type: cell-free; conditions: dose 10-60 µg/ml
Bos taurus [3] = species on record: Bos taurus; experiment: Neutralization of enoxaparin sodium in bovine plasma at 10 to 60 ug/ml by aPTT assay; type: cell-free; conditions: dose 10-60 µg/ml
Bos taurus [4] = species on record: Bos taurus; experiment: Neutralization of unfractionated heparin in bovine plasma at 10 to 60 ug/ml by aPTT assay; type: cell-free; conditions: dose 10-60 µg/ml
[5] = Acute toxicity in iv dosed ICR mouse assessed as maximum tolerated dose measured after 7 days; type: organism-based; conditions: in vivo, time 7 day
Bos taurus [6] = species on record: Bos taurus; experiment: Neutralization of enoxaparin sodium in bovine plasma at 10 to 60 ug/ml by aPTT assay relative to control; type: cell-free; conditions: dose 10-60 µg/ml
Bos taurus [7] = species on record: Bos taurus; experiment: Neutralization of unfractionated heparin in bovine plasma at 10 to 60 ug/ml by aPTT assay relative to control; type: cell-free; conditions: dose 10-60 µg/ml
Bos taurus [8] = species on record: Bos taurus; experiment: Neutralization of dalteparin sodium in bovine plasma at 10 to 60 ug/ml by aPTT assay relative to control; type: cell-free; conditions: dose 10-60 µg/ml
Homo sapiens [9] = species on record: Homo sapiens; experiment: Neutralization of enoxaparin sodium in human poor platelet plasma at 10 to 50 ug/ml by aPTT assay relative to control; type: cell-free; conditions: dose 10-50 µg/ml
Homo sapiens [10] = species on record: Homo sapiens; experiment: Neutralization of dalteparin sodium in human poor platelet plasma at 10 to 50 ug/ml by aPTT assay relative to control; type: cell-free; conditions: dose 10-50 µg/ml
Bos taurus [11] = species on record: Bos taurus; experiment: Neutralization of nadroparin calcium in bovine plasma at 10 to 60 ug/ml by aPTT assay relative to control; type: cell-free; conditions: dose 10-60 µg/ml
Homo sapiens [12] = species on record: Homo sapiens; experiment: Neutralization of unfractionated heparin in human poor platelet plasma at 10 to 50 ug/ml by aPTT assay relative to control; type: cell-free; conditions: dose 10-50 µg/ml
[13] = Binding affinity to dalteparin sodium in saline at pH 7.4 assessed as change in enthalpy by ITC analysis
[14] = Binding affinity to enoxaparin sodium in saline at pH 7.4 assessed as change in enthalpy by ITC analysis
[15] = Binding affinity to dalteparin sodium in saline at pH 7.4 assessed as binding constant by ITC analysis
[16] = Blood compatibility in bovine plasma assessed as activated partial thromboplastin time at <23 ug/ml by turbidimetry method; type: toxicity, cell-free, Bos taurus; conditions: cattle, dose < 23 µg/ml
[17] = Binding affinity to nadroparin calcium in saline at pH 7.4 assessed as binding constant by ITC analysis
[18] = Binding affinity to nadroparin calcium in saline at pH 7.4 assessed as change in gibbs free energy by ITC analysis
[19] = Binding affinity to enoxaparin sodium in saline at pH 7.4 assessed as binding constant by ITC analysis
[20] = Binding affinity to unfractionated heparin in saline at pH 7.4 assessed as change in entropy by ITC analysis
Erythrocyte [21] = experiment: Hemolytic activity in human red blood cells at 256 ug/ml; type: toxicity, cell-based; conditions: dose 256 µg/ml
[22] = Binding affinity to unfractionated heparin in saline at pH 7.4 assessed as change in gibbs free energy by ITC analysis
Homo sapiens [23] = species on record: Homo sapiens; experiment: Neutralization of dalteparin sodium in human poor platelet plasma at 10 to 50 ug/ml by aPTT assay; type: cell-free; conditions: dose 10-50 µg/ml
Erythrocyte [24] = experiment: Hemolytic activity in Sprague-Dawley rat red blood cells at 256 ug/ml; type: toxicity, cell-based; conditions: dose 256 µg/ml
[25] = Binding affinity to enoxaparin sodium in saline at pH 7.4 assessed as change in entropy by ITC analysis
[26] = Binding affinity to dalteparin sodium in saline at pH 7.4 assessed as change in entropy by ITC analysis
[27] = Binding affinity to enoxaparin sodium in saline at pH 7.4 assessed as change in gibbs free energy by ITC analysis
[28] = Binding affinity to nadroparin calcium in saline at pH 7.4 assessed as change in entropy by ITC analysis
[29] = Binding affinity to unfractionated heparin in saline at pH 7.4 assessed as binding constant by ITC analysis
[30] = Binding affinity to nadroparin calcium in saline at pH 7.4 assessed as change in enthalpy by ITC analysis
[31] = Binding affinity to dalteparin sodium in saline at pH 7.4 assessed as change in gibbs free energy by ITC analysis
[32] = Binding affinity to unfractionated heparin in saline at pH 7.4 assessed as change in enthalpy by ITC analysis
Homo sapiens [33] = species on record: Homo sapiens; experiment: Reversal of anticoagulation of enoxaparin sodium in human whole blood assessed as minimum effective dose incubated for 5 mins by thromboelastography; type: tissue-based
Erythrocyte [34] = experiment: Hemolytic activity in Sprague-Dawley rat red blood cells at 512 ug/ml; type: toxicity, cell-based; conditions: dose 512 µg/ml
Homo sapiens [35] = species on record: Homo sapiens; experiment: Neutralization of enoxaparin sodium in human poor platelet plasma at 10 to 50 ug/ml by aPTT assay; type: cell-free; conditions: dose 10-50 µg/ml
Homo sapiens [36] = species on record: Homo sapiens; experiment: Reversal of anticoagulation of nadroparin calcium in human whole blood assessed as minimum effective dose incubated for 5 mins by thromboelastography; type: tissue-based
[37] = Blood compatibility in bovine plasma assessed as activated partial thromboplastin time at <54 ug/ml by turbidimetry method; type: toxicity, cell-free, Bos taurus; conditions: cattle, dose < 54 µg/ml
Homo sapiens [38] = species on record: Homo sapiens; experiment: Reversal of anticoagulation of unfractionated heparin in human whole blood assessed as minimum effective dose incubated for 5 mins by thromboelastography; type: tissue-based
Homo sapiens [39] = species on record: Homo sapiens; experiment: Reversal of anticoagulation of dalteparin sodium in human whole blood assessed as minimum effective dose incubated for 5 mins by thromboelastography; type: tissue-based
Erythrocyte [40] = experiment: Hemolytic activity in human red blood cells at 512 ug/ml; type: toxicity, cell-based; conditions: dose 512 µg/ml

Activity (Bos taurus [1]): Active
Activity (Bos taurus [2]): Active
Activity (Bos taurus [3]): Active
Activity (Bos taurus [4]): Active
SMILES: NCCOc1ccc(-n2cc[n+](Cc3ccc(C(c4ccc(C[n+]5ccn(-c6ccc(OCCN)cc6)c5)cc4)(c4ccc(C[n+]5ccn(-c6ccc(OCCN)cc6)c5)cc4)c4ccc(C[n+]5ccn(-c6ccc(OCCN)cc6)c5)cc4)cc3)c2)cc1

Activity (Bos taurus [1]): Active
Activity (Bos taurus [2]): Active
Activity (Bos taurus [3]): Active
Activity (Bos taurus [4]): Active
SMILES: NCCOc1ccc2c[n+](Cc3ccc(C(c4ccc(C[n+]5ccc6cc(OCCN)ccc6c5)cc4)(c4ccc(C[n+]5ccc6cc(OCCN)ccc6c5)cc4)c4ccc(C[n+]5ccc6cc(OCCN)ccc6c5)cc4)cc3)ccc2c1

Activity (Bos taurus [1]): inactive
Activity (Bos taurus [2]): inactive
Activity (Bos taurus [3]): inactive
Activity (Bos taurus [4]): inactive
SMILES: Cn1cc[n+](Cc2ccc(C(c3ccc(C[n+]4ccn(C)c4)cc3)(c3ccc(C[n+]4ccn(C)c4)cc3)c3ccc(C[n+]4ccn(C)c4)cc3)cc2)c1

Activity (Bos taurus [1]): inactive
Activity (Bos taurus [2]): inactive
Activity (Bos taurus [3]): inactive
Activity (Bos taurus [4]): inactive
SMILES: c1cc[n+](Cc2ccc(C(c3ccc(C[n+]4ccccc4)cc3)(c3ccc(C[n+]4ccccc4)cc3)c3ccc(C[n+]4ccccc4)cc3)cc2)cc1

Activity (Bos taurus [1]): inactive
Activity (Bos taurus [2]): inactive
Activity (Bos taurus [3]): inactive
Activity (Bos taurus [4]): inactive
SMILES: COc1ccc(-c2cc[n+](Cc3ccc(C(c4ccc(C[n+]5ccc(-c6ccc(OC)cc6)cc5)cc4)(c4ccc(C[n+]5ccc(-c6ccc(OC)cc6)cc5)cc4)c4ccc(C[n+]5ccc(-c6ccc(OC)cc6)cc5)cc4)cc3)cc2)cc1

Second part, the molecule before the results:

SMILES: NCCCOc1ccc(-c2cc[n+](Cc3ccc(C(c4ccc(C[n+]5ccc(-c6ccc(OCCCN)cc6)cc5)cc4)(c4ccc(C[n+]5ccc(-c6ccc(OCCCN)cc6)cc5)cc4)c4ccc(C[n+]5ccc(-c6ccc(OCCCN)cc6)cc5)cc4)cc3)cc2)cc1.[Cl-].[Cl-].[Cl-].[Cl-]
Activity (Bos taurus [1]): Active
MTD at 168 h [5]: 15 mg/kg
Activity (Bos taurus [6]): > 98%
Activity (Bos taurus [7]): > 98%
Activity (Bos taurus [2]): Active
Activity (Bos taurus [8]): > 98%
Activity (Homo sapiens [9]): > 98%
Activity (Homo sapiens [10]): > 98%
Activity (Bos taurus [11]): > 86%
Activity (Homo sapiens [12]): > 98%
Activity (Bos taurus [3]): Active
Activity (Bos taurus [4]): Active

SMILES: NCC(=O)Nc1ccc(-c2cc[n+](Cc3ccc(C(c4ccc(C[n+]5ccc(-c6ccc(NC(=O)CN)cc6)cc5)cc4)(c4ccc(C[n+]5ccc(-c6ccc(NC(=O)CN)cc6)cc5)cc4)c4ccc(C[n+]5ccc(-c6ccc(NC(=O)CN)cc6)cc5)cc4)cc3)cc2)cc1.[Cl-].[Cl-].[Cl-].[Cl-]
Activity (Bos taurus [1]): Active
MTD at 168 h [5]: 8 mg/kg
Activity (Bos taurus [6]): > 98%
Activity (Bos taurus [7]): > 98%
Activity (Bos taurus [2]): Active
Activity (Bos taurus [8]): > 98%
Activity (Homo sapiens [9]): > 98%
Activity (Homo sapiens [10]): > 98%
Activity (Homo sapiens [12]): > 98%
Activity (Bos taurus [3]): Active
Activity (Bos taurus [4]): Active

SMILES: NCCSc1ccc(-c2cc[n+](Cc3ccc(C(c4ccc(C[n+]5ccc(-c6ccc(SCCN)cc6)cc5)cc4)(c4ccc(C[n+]5ccc(-c6ccc(SCCN)cc6)cc5)cc4)c4ccc(C[n+]5ccc(-c6ccc(SCCN)cc6)cc5)cc4)cc3)cc2)cc1.[Cl-].[Cl-].[Cl-].[Cl-]
Activity (Bos taurus [1]): Active
MTD at 168 h [5]: 8 mg/kg
Activity (Bos taurus [2]): Active
Activity (Bos taurus [3]): Active
Activity (Bos taurus [4]): Active

SMILES: NCCOc1cc(-c2cc[n+](Cc3ccc(C(c4ccc(C[n+]5ccc(-c6cc(OCCN)c(OCCN)c(OCCN)c6)cc5)cc4)(c4ccc(C[n+]5ccc(-c6cc(OCCN)c(OCCN)c(OCCN)c6)cc5)cc4)c4ccc(C[n+]5ccc(-c6cc(OCCN)c(OCCN)c(OCCN)c6)cc5)cc4)cc3)cc2)cc(OCCN)c1OCCN.[Cl-].[Cl-].[Cl-].[Cl-]
deltaH [13]: -20.3 kJ/mol
Activity (Bos taurus [1]): Active
deltaH [14]: -23.6 kJ/mol
Ka [15]: 7.09e+06 M⁻¹
MTD at 168 h [5]: 20 mg/kg
APTT [16]: 23 s
Ka [17]: 5.43e+06 M⁻¹
deltaG [18]: -38.5 kJ/mol
Ka [19]: 4.85e+06 M⁻¹
-TdeltaS [20]: -15.2 kJ/mol
Activity (Erythrocyte [21]): Non-Toxic
deltaG [22]: -37.5 kJ/mol
Activity (Homo sapiens [23]): Active
Activity (Erythrocyte [24]): Non-Toxic
-TdeltaS [25]: -14.6 kJ/mol
-TdeltaS [26]: -18.7 kJ/mol
deltaG [27]: -38.2 kJ/mol
-TdeltaS [28]: -18.3 kJ/mol
Ka [29]: 3.72e+06 M⁻¹
deltaH [30]: -20.2 kJ/mol
deltaG [31]: -39.1 kJ/mol
deltaH [32]: -22.3 kJ/mol

SMILES: NCCOc1ccc(-c2cc[n+](Cc3ccc(C(c4ccc(C[n+]5ccc(-c6ccc(OCCN)cc6)cc5)cc4)(c4ccc(C[n+]5ccc(-c6ccc(OCCN)cc6)cc5)cc4)c4ccc(C[n+]5ccc(-c6ccc(OCCN)cc6)cc5)cc4)cc3)cc2)cc1.[Cl-].[Cl-].[Cl-].[Cl-]
deltaH [13]: -19 kJ/mol
deltaH [14]: -24.6 kJ/mol
Ka [15]: 8.77e+06 M⁻¹
MTD at 168 h [5]: 17.5 mg/kg
MED (Homo sapiens [33]): 10 µg/mL
Activity (Erythrocyte [34]): Non-Toxic
Activity (Homo sapiens [35]): Active
Ka [17]: 5e+06 M⁻¹
deltaG [18]: -38.3 kJ/mol
Ka [19]: 4.61e+06 M⁻¹
MED (Homo sapiens [36]): 10 µg/mL
-TdeltaS [20]: -18.5 kJ/mol
deltaG [22]: -38.1 kJ/mol
-TdeltaS [25]: -13.5 kJ/mol
-TdeltaS [26]: -20.7 kJ/mol
deltaG [27]: -38 kJ/mol
-TdeltaS [28]: -20 kJ/mol
APTT [37]: 23 s
MED (Homo sapiens [38]): 12 µg/mL
Ka [29]: 4.72e+06 M⁻¹
deltaH [30]: -18.3 kJ/mol
deltaG [31]: -39.6 kJ/mol
MED (Homo sapiens [39]): 10 µg/mL
Activity (Bos taurus [3]): Active
Activity (Erythrocyte [40]): Non-Toxic
deltaH [32]: -19.5 kJ/mol
